Laboratory results: the supplement of paper PMC13380429

Legend:
Conditions in all cases: 72 h
[1] = test system: Caco-2; experiment: cell viability relative to DMSO; higher = less toxic
[2] = test system: Calu-3; experiment: as above
[3] = test system: HepG2; experiment: as above
[4] = test system: U2OS; experiment: as above
[5] = test system: Vero E6; experiment: as above
[6] = test system: HepG2; experiment: relative viability EC50 (midpoint between 100% and the lowest measured viability); higher = less toxic
[7] = test system: U2OS; experiment: as above
[8] = test system: Vero E6; experiment: as above
[9] = test system: Caco-2; experiment: drug sensitivity score (DSS) for viability; higher = more toxic; extreme values may be limits of the assay
[10] = test system: Calu-3; experiment: as above
[11] = test system: HepG2; experiment: as above
[12] = test system: U2OS; experiment: as above
[13] = test system: Vero E6; experiment: as above
[14] = test system: Caco-2; experiment: relative viability EC50 (midpoint between 100% and the lowest measured viability); higher = less toxic
[15] = test system: Calu-3; experiment: as above

Compound	cell viability ([1]; 1 nM) [%]	cell viability ([1]; 10 nM) [%]	cell viability ([1]; 100 nM) [%]	cell viability ([1]; 1000 nM) [%]	cell viability ([1]; 10000 nM) [%]	cell viability ([2]; 1 nM) [%]	cell viability ([2]; 10 nM) [%]	cell viability ([2]; 100 nM) [%]	cell viability ([2]; 1000 nM) [%]	cell viability ([2]; 10000 nM) [%]	cell viability ([3]; 1 nM) [%]	cell viability ([3]; 10 nM) [%]	cell viability ([3]; 100 nM) [%]	cell viability ([3]; 1000 nM) [%]	cell viability ([3]; 10000 nM) [%]	cell viability ([4]; 1 nM) [%]	cell viability ([4]; 10 nM) [%]	cell viability ([4]; 100 nM) [%]	cell viability ([4]; 1000 nM) [%]	cell viability ([4]; 10000 nM) [%]	cell viability ([5]; 1 nM) [%]	cell viability ([5]; 10 nM) [%]	cell viability ([5]; 100 nM) [%]	cell viability ([5]; 1000 nM) [%]	cell viability ([5]; 10000 nM) [%]	relative viability EC50 [6] [nM]	relative viability EC50 [7] [nM]	relative viability EC50 [8] [nM]	drug sensitivity score [9]	drug sensitivity score [10]	drug sensitivity score [11]	drug sensitivity score [12]	drug sensitivity score [13]	relative viability EC50 [14] [µM]	relative viability EC50 [15] [µM]
Cc1nnc(C[C@@H]2C=C(c3ccc(Cl)cc3)c3ccccc3-n3c(C)nnc32)o1 [BET-BAY-002]	96.9	97.1	90.4	74.8	68.3	93.1	103	94.7	62.5	53.9	91	94.1	87	58.6	41.5	97.1	101	88.2	61.4	36.9	94.6	98	72.1	23.3	16.2	355	557	169	4.9	7.4	9.2	8.6	17.5		
CC(=O)O[C@H]1C[C@@H]2CC[C@@H]3[C@H](CC[C@@]4(C)[C@H]3C[C@H]([N+]3(C)CCCCC3)[C@@H]4OC(C)=O)[C@@]2(C)C[C@@H]1[N+]1(C)CCCCC1 [pancuronium]	106	99.9	97.8	97.5	94.1	114	101	103	104	99.5	98.2	103	101	106	102						102	102	106	101	97.9	> 10000		> 10000	0	0	0		0	> 10	> 10
C[N+](C)(C)CCCCCC[N+](C)(C)C [hexamethonium]	97.3	104	98.2	99.4	100	86.3	97.1	101	108	103	109	96.7	97.6	95.3	96.6	100	102	96.2	103	99.8						> 10000	> 10000		0	0	0	0		> 10	> 10
OCC[N+]12CN3CN(CN(C3)C1)C2 [Y-11]	102	108	97.2	101	99.2	97.6	90.1	98	102	99.1	97.6	90.5	102	102	110						102	99.1	106	96.2	100	> 10000		> 10000	0	0	0		0	> 10	> 10
CN(c1ncccc1CNc1nc(Nc2ccc3c(c2)CC(=O)N3)ncc1C(F)(F)F)S(C)(=O)=O	105	111	107	91.5	53.1	108	104	100	108	39.5	108	113	108	74.1	7.9						98.5	101	87.8	83.9	41.5	1460		1640	3.9	2.8	9		5.1		3.74
CC[C@H](CC#N)OC(=O)N[C@@H](C)c1cccc(NC(=O)Nc2ccc(-c3cnco3)c(OC)c2)c1 [AVN-944]	102	94.1	93.6	54.8	48	97.6	92.9	88.7	57.3	58.2	89	106	101	37.6	29	105	101	102	45.2	22.2	97.8	108	103	67.6	30.2	464	707	1060	9.1	9.1	11.5	10.7	8	0.319	
CC1(C)CCC(C)(C)c2cc(C#Cc3ccc(C(=O)O)cc3)ccc21 [EC-23]	104	105	89.1	88.8	80.6	106	88.7	83.9	63.9	85.7	96.5	108	104	108	106	105	100	98.4	95.7	97.4	102	99.6	100	97.4	94.2	> 10000	> 10000	> 10000	1.7	5.2	0	0	0	> 10	
O=C(NC[C@H]1CN(c2ccc(N3CCOCC3=O)cc2)C(=O)O1)c1ccc(Cl)s1 [Rivaroxaban (Xarelto)]	92.6	95.4	101	86.9	91	96.4	89.7	105	102	96.4	102	102	97.1	110	90.9	103	99.1	102	96	102						> 10000	> 10000		0	0	0	0		> 10	> 10
